Test results as given in patent US20240114940A1, “SACCHARIDE COMPOSITIONS HAVING SUCROSE-LIKE CHARACTERISTICS AND RELATED METHODS” (priority 2021, published 2024).

Assay: Breakdown products by GCMS after Maillard reaction in the presence of Tryptophan
Type: physicochemical
Settings: with Tryptophan, pH 7, 160° C., 10 min
Description: Controls were prepared addition of 1 mL of pH 7 buffer to the amino acids. The samples were rapidly heated to 160° C. and held at this temperature for 10 min. Samples were rapidly cooled afterwards, and absorbance at 500 nm was measured for each reaction mixture. Volatiles were analysed using gas chromatography mass spectrometry (GCMS) analysis. An Agilent Technologies 5975B Inert XL MSD gas chromatography, single quadruple mass spectrometer was used for analysis of volatiles. Samples were added to separate GCMS headspace vials and weighed. 0.03 g of 0.01% 3-heptanone in water was added and the vial was sealed for GCMS solid phase micro extraction (SPME) analysis. Samples were analysed in a randomized order. Samples were incubated and agitated at 250 RPM, at 60° C. for 15 min prior to SPME analysis of volatiles. The SPME fibre (50/30 DVB/CAR/PDMS, 23 Ga) extracted for 10 min, then thermally desorbed at 250° C. for 5 min. A 30 m×0.25 mm×0.25 μm HP-5MS column was used (Phenomenex, UK). Oven temperature settings: 31° C.-5 min, 5° C./min to 150° C., 30° C./min to 240° C. Inlet settings: 250° C., pressure 10.4 psi, flow 11.2 mL/min, split ratio 7:1. MS operated in full scan mode from 40 to 400 m/z with a scan time of 0.2s. The peak area of the aroma compounds was compared to the peak of the internal standard 3-heptanone and corrected for the weight of the sample.
The concentration of the different classes of Maillard reaction breakdown products is presented in Tables 9B-E. The same data as Tables 9B-E is also presented in FIG. 27. Concentrations are in parts per billion of the difference non-enzymatic breakdown products for the different compositions at 160° C. analysed by GCMS.

Concentration of 2-Butanone: 3.16 ppb
Concentration of 2-Propanone, 1-hydroxy-: 20.48 ppb
Concentration of Diacetyl (2,3-Butanedione): 6.99 ppb
Concentration of Furan, 2-methyl-: 0.25 ppb
Concentration of Furan, 2-pentyl-: 0.03 ppb
Concentration of Furfural: 0.03 ppb
Concentration of Indole: 20.81 ppb
Concentration of Pyrazine, 2,5-diethyl-: 5.74 ppb
Concentration of Pyrazine, 2,5-dimethyl-: 778.85 ppb
Concentration of Pyrazine, 2-ethyl-5-methyl-: 201.9 ppb
Concentration of Pyrazine, ethyl-: 0.19 ppb
Concentration of Pyrazine, methyl-: 0.56 ppb
Structure (SMILES): OC[C@H]1O[C@@](CO)(O[C@H]2O[C@H](CO)[C@@H](O)[C@H](O)[C@H]2O)[C@@H](O)[C@@H]1O [Sucrose]
